ChEMBL document CHEMBL3421630, “Myxochelins target human 5-lipoxygenase” (J Nat Prod, 2015)
Active and inactive are the calls of the source. The calls are words filed in the database; no cut-off is given here.

Experiments:
[1] = target: T1, Polyunsaturated fatty acid 5-lipoxygenase (Homo sapiens) (UniProt P09917); details: 3 uM
T1 sequence (whole entry): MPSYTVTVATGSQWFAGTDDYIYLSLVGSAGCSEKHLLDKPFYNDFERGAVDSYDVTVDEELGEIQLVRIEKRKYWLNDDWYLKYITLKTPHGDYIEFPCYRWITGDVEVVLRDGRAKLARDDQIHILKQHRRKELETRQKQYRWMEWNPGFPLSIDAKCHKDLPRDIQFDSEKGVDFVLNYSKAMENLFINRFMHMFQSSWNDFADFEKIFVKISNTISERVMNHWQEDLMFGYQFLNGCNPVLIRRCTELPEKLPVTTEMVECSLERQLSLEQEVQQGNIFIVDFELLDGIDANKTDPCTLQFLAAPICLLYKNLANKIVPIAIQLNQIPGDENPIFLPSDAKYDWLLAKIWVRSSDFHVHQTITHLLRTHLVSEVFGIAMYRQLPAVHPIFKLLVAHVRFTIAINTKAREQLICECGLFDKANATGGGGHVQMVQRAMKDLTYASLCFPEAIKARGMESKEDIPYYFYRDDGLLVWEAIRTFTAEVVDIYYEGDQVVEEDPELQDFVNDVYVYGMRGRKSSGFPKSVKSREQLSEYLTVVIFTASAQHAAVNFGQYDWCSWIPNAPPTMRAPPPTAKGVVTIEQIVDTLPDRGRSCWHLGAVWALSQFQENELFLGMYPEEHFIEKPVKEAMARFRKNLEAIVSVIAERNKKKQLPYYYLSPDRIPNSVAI
Description: Inhibition of human recombinant 5-LOX expressed in Escherichia coli BL21 DE3 assessed as reduction in 5-LO product formation at 3 uM pre-incubated for 10 mins by RP-HPLC method

[2] = Siderophore activity by chrome azurol S assay
HeLa = assay: Inhibition of cell proliferation of human HeLa cells after 72 hrs by methylene blue dye based assay; assay type: functional
K562 = assay: Inhibition of cell proliferation of human K562 cells after 72 hrs by cell-titer-blue assay; assay type: functional, cell-based; details: K562, 72 h
[3] = target: T1, Polyunsaturated fatty acid 5-lipoxygenase (Homo sapiens); assay: Inhibition of human recombinant 5-LOX expressed in Escherichia coli BL21 DE3 assessed as reduction in 5-LO product formation at 10 uM pre-incubated for 10 mins by RP-HPLC method
[4] = target: T1, Polyunsaturated fatty acid 5-lipoxygenase (Homo sapiens); assay: (§1) Inhibition of human recombinant 5-LOX expressed in Escherichia coli BL21 DE3 assessed as reduction in 5-LO product formation pre-incubated for 10 mins by RP-HPLC method
[5] = target: T2, Polyunsaturated fatty acid 5-lipoxygenase (Homo sapiens, UniProt P09917); assay: as §1
T2 sequence (P09917 whole entry): T1 sequence (whole entry)

[6] = target: T3, Prostaglandin E synthase (Homo sapiens) (UniProt O14684); assay: Inhibition of m-PGES1 in IL-1beta-induced human A549 cell microsomes assessed as reduction in […]PGE2 production up to 100 uM pre-incubated for 15 mins before PGH2 addition by UV detection based reverse-phase high-performance liquid chromatography
T3 sequence (whole entry): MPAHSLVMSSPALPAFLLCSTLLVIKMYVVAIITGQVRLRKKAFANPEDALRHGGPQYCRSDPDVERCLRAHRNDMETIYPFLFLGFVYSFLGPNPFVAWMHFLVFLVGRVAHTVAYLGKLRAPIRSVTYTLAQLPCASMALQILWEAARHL

Row | SMILES | inhibition [1] | Activity [2] | IC50 (HeLa) | IC50 (K562) | inhibition [3] | inhibition [4] | IC50 [5] | inhibition [6]
1 | CC(c1cc2ccccc2s1)N(O)C(N)=O (stereo not drawn) | Active | – | – | – | – | – | – | –
2 | O=C(NCCCC[C@@H](CO)NC(=O)c1cccc(O)c1O)c1cccc(O)c1O | – | Active | 305 µM | 3.9 µM | Active | Dose-dependent effect | 1.9 µM | inactive
